Test results taken from patent publication US12653815B2, “Luminally-acting N-(piperidin-4-yl)benzamide derivatives” (Takeda Pharmaceutical Company Limited, priority 2020, dated 2026).
pEC50: −log10 of the molar value.

These molecules were tested against T1, human 5-HT4(b) receptor (Homo sapiens, UniProt Q13639) (assay: 5-HT4(b) agonist assay (cAMP accumulation)). Settings: CHO-K1 cells overexpressing full-length human 5-HT4(b) receptor; cAMP accumulation after 30 minutes at room temperature; 1 μM 5-HT as 100% activity.
T1 construct: overexpressing the full-length human 5-HT4(b) receptor with an N-terminal FLAG tag; FLAG (N); host or cells: CHO-K1
T1 sequence (Q13639 whole entry): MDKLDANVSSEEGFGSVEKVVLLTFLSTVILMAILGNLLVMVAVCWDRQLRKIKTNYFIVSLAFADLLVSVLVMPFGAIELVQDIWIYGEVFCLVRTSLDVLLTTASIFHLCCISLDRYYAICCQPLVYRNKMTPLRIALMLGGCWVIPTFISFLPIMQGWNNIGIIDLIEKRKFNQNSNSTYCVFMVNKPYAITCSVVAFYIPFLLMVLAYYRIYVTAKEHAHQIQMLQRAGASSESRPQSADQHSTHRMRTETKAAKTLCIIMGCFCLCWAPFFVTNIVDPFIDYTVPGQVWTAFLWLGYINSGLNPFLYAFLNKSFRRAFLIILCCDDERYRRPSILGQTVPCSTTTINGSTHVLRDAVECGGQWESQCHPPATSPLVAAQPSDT
Type: cell-based
Procedure: One may determine the activity of the compounds of Formula 1 using a variety of methods, including in vitro and in vivo methods. The ability of the example compounds to activate the 5-HT4(b) receptor may be determined using the following assay.
Chinese hamster ovary (CHO-K1) cells overexpressing the full-length human 5-HT4(b) receptor with an N-terminal FLAG tag (Multispan Inc, Hayward, CA) are cultured per the manufacturer's protocol in 1:1 DMEM/F12 (Thermo Fisher, Waltham, MA) with 10% fetal bovine serum (GE Healthcare, Pittsburgh, PA) and 10 μg/mL puromycin (Thermo Fisher, Waltham, MA), and stored in frozen aliquots to be used as assay ready cells. On the day of the assay, cells are removed from frozen storage, washed two times in 1× Kreb's Ringer Buffer (Zenbio, Research Triangle Park, NC), and re-suspended to a concentration of 4×10^6 cells/mL in 1× Kreb's Ringer Buffer. Test compound (50 nL) in 100% DMSO is acoustically dispensed in low volume, white, 384-well polypropylene plates (Corning, Tewksbury, MA), followed by the addition of 4×10^4 cells per well in a total volume of 10 μL. Cells are incubated with test compound for 30 minutes at room temperature in the dark, and cAMP accumulation is measured using the Cisbio HiRange cAMP assay kit (Bedford, MA) per the manufacturer's protocol. Anti-cAMP antibody and d2-cAMP tracer reagents diluted in lysis/detection buffer are incubated in the dark for 1 hour, and results are measured on a Pherastar plate reader (BMG Labtech, Ortenberg, Germany). Data are normalized using 1 μM 5-HT (Sigma Aldrich, St. Louis, MO) as 100% activity, and DMSO alone as 0% activity.
The ability of the example compounds to activate the 5-HT4(b) receptor was evaluated using the assay described in the Biological Activity section. Table 1, below, lists EC50 from the 5-HT4(b) agonist assay for each of the example compounds, where smaller EC50 values represent higher potency.

| Structure (SMILES) | pEC50 |
| --- | --- |
| COc1cc(N)c(Cl)cc1C(=O)N[C@@H]1CCN(CCC(C)CCC(=O)NCCCCCCCC(=O)NC[C@H](O)[C@@H](O)[C@H](O)[C@H](O)CO)C[C@@H]1OC (stereo partly drawn) [Example 20, 4-amino-5-chloro-2-methoxy-N-((3S,4R)-3-methoxy-1-(3-methyl-6-oxo-6-((8-oxo-8-(((2S,3R,4R,5R)-2,3,4,5,6-pentahydroxyhexyl)amino)octyl)amino)hexyl)piperidin-4-yl)benzamide] | 7.24 |
| COc1cc(N)c(Cl)cc1C(=O)N[C@@H]1CCN(CCCC(C)CC(=O)NCCCCCCCC(=O)NC[C@H](O)[C@@H](O)[C@H](O)[C@H](O)CO)C[C@@H]1OC (stereo partly drawn) [Example 21, 4-amino-5-chloro-2-methoxy-N-((3S,4R)-3-methoxy-1-(4-methyl-6-oxo-6-((8-oxo-8-(((2S,3R,4R,5R)-2,3,4,5,6-pentahydroxyhexyl)amino)octyl)amino)hexyl)piperidin-4-yl)benzamide] | 7.56 |
| COc1cc(N)c(Cl)cc1C(=O)N[C@@H]1CCN(CCCCCC(=O)NCCCCCCCC(=O)N(CCO)C[C@H](O)[C@@H](O)[C@H](O)[C@H](O)CO)C[C@@H]1OC [Example 22, 4-amino-5-chloro-N-((3 S,4R)-1-(6-((8-((2-hydroxyethyl)((2S,3R,4R,5R)-2,3,4,5,6-pentahydroxyhexyl)amino)-8-oxooctyl)amino)-6-oxohexyl)-3-methoxypiperidin-4-yl)-2-methoxybenzamide] | 7.72 |
| COc1cc(N)c(Cl)cc1C(=O)N[C@@H]1CCN(CCCCCC(=O)NCCCCCCCC(=O)NCCS(=O)(=O)O)C[C@@H]1OC [Example 23, 2-(8-(6-((3S,4R)-4-(4-amino-5-chloro-2-methoxybenzamido)-3-methoxypiperidin-1-yl)hexanamido)octanamido)ethane-1-sulfonic acid] | 7.25 |
| COc1cc(N)c(Cl)cc1C(=O)N[C@@H]1CCN(CCCCCC(=O)NCCCCCCCC(=O)N(CCP(=O)(O)O)C[C@H](O)[C@@H](O)[C@H](O)[C@H](O)CO)C[C@@H]1OC [Example 26, (2-(8-(6-((3S,4R)-4-(4-amino-5-chloro-2-methoxybenzamido)-3-methoxypiperidin-1-yl)hexanamido)-N-((2S,3R,4R,5R)-2,3,4,5,6-pentahydroxyhexyl)octanamido)ethyl)phosphonic acid] | 6.88 |
| COc1cc(N)c(Cl)cc1C(=O)N[C@@H]1CCN(CCCCCC(=O)NCCCCCCCC(=O)N(CCCN(C)C)CCS(=O)(=O)O)C[C@@H]1OC [Example 27, 2-(8-(6-((3S,4R)-4-(4-amino-5-chloro-2-methoxybenzamido)methoxypiperidin-1-yl)hexanamido)-N-(3-(dimethylamino)propyl)octanamido)ethane-1-sulfonic acid] | 7.52 |
| Nc1c(Cl)cc(C(=O)NC2CCN(CCCCCC(=O)N[C@@H]3CCCN(CCCCCC(=O)NC[C@H](O)[C@@H](O)[C@H](O)[C@H](O)CO)C3)CC2)c2c1CCO2 [Example 29, 4-amino-5-chloro-N-(1-(6-oxo-6-(((R)-1-(6-oxo-6-(((2S,3R,4R,5R)-2,3,4,5,6-pentahydroxyhexyl)amino)hexyl)piperidin-3-yl)amino)hexyl)piperidin-4-yl)-2,3-dihydrobenzofuran-7-carboxamide] | 8.36 |
| Nc1c(Cl)cc(C(=O)NC2CCN(CCCCCC(=O)NC3CCN(CCCCCC(=O)NC[C@H](O)[C@@H](O)[C@H](O)[C@H](O)CO)CC3)CC2)c2c1CCO2 [Example 31, 4-amino-5-chloro-N-(1-(6-oxo-6-((1-(6-oxo-6-(((2S,3R,4R,5R)-2,3,4,5,6-pentahydroxyhexyl)amino)hexyl)piperidin-4-yl)amino)hexyl)piperidin-4-yl)-2,3-dihydrobenzofuran-7-carboxamide] | 8.21 |

Second part, the molecule after the results:

| pEC50 | Structure (SMILES) |
| --- | --- |
| 7.36 | COc1cc(N)c(Cl)cc1C(=O)N[C@@H]1CCN(CCCCCC(=O)N(C)CCCCCCCC(=O)NC[C@H](O)[C@@H](O)[C@H](O)[C@H](O)CO)C[C@@H]1OC [Example 16, 4-amino-5-chloro-2-methoxy-N-((3S,4R)-3-methoxy-1-(6-(methyl(8-oxo-8-(((2S,3R,4R,5R)-2,3,4,5,6-pentahydroxyhexyl)amino)octyl)amino)-6-oxohexyl)piperidin-4-yl)benzamide] |
| 6.70 | COc1cc(N)c(Cl)cc1C(=O)N[C@@H]1CCN(CCOCCC(=O)NCCCCCCCC(=O)NC[C@H](O)[C@@H](O)[C@H](O)[C@H](O)CO)C[C@@H]1OC [Example 17, 4-amino-5-chloro-2-methoxy-N-((3S,4R)-3-methoxy-1-(2-(3-oxo ((8-oxo-8-(((2S,3R,4R,5R)-2,3,4,5,6-pentahydroxyhexyl)amino)octyl)amino)propoxy)ethyl)piperidin-4-yl)benzamide] |
| 6.82 | COc1cc(N)c(Cl)cc1C(=O)N[C@@H]1CCN(C(C)CCCCC(=O)NCCCCCCCC(=O)NC[C@H](O)[C@@H](O)[C@H](O)[C@H](O)CO)C[C@@H]1OC (stereo partly drawn) [Example 18, 4-amino-5-chloro-2-methoxy-N-((3S,4R)-3-methoxy-1-(7-oxo-7-((8-oxo-8-(((2S,3R,4R,5R)-2,3,4,5,6-pentahydroxyhexyl)amino)octyl)amino)heptan-2-yl)piperidin-4-yl)benzamide] |
| 7.11 | COc1cc(N)c(Cl)cc1C(=O)N[C@@H]1CCN(CC(C)CCCC(=O)NCCCCCCCC(=O)NC[C@H](O)[C@@H](O)[C@H](O)[C@H](O)CO)C[C@@H]1OC (stereo partly drawn) [Example 19, 4-amino-5-chloro-2-methoxy-N-((3S,4R)-3-methoxy-1-(2-methyloxo-6-((8-oxo-8-(((2S,3R,4R,5R)-2,3,4,5,6-pentahydroxyhexyl)amino)octyl)amino)hexyl)piperidin-4-yl)benzamide] |
| 7.54 | COc1cc(N)c(Cl)cc1C(=O)N[C@@H]1CCN(CCCCCC(=O)NCCCCCCCC(=O)N[C@H]2C[C@](O)(CO)[C@@H](O)[C@H](O)[C@H]2O)C[C@@H]1OC [Example 24, 4-amino-5-chloro-2-methoxy-N-((3S,4R)-3-methoxy-1-(6-oxo ((8-oxo-8-(((1S,2S,3R,4S,5S)-2,3,4,5-tetrahydroxy (hydroxymethyl)cyclohexyl)amino)octyl)amino)hexyl)piperidin-4-yl)benzamide] |
| 6.94 | COc1cc(N)c(Cl)cc1C(=O)N[C@@H]1CCN(CCCCCC(=O)NCCCCCCCC(=O)NCCP(=O)(O)O)C[C@@H]1OC [Example 25, (2-(8-(6-((3S,4R)-4-(4-amino-5-chloro-2-methoxybenzamido)-3-methoxypiperidin-1-yl)hexanamido)octanamido)ethyl)phosphonic acid] |
| 8.42 | Nc1c(Cl)cc(C(=O)NC2CCN(CCCCCC(=O)N[C@@H]3CCCN(CCCCCCCC(=O)NC[C@H](O)[C@@H](O)[C@H](O)[C@H](O)CO)C3)CC2)c2c1CCO2 [Example 28, 4-amino-5-chloro-N-(1-(6-oxo-6-(((R)-1-(8-oxo-8-(((2S,3R,4R,5R)-2,3,4,5,6-pentahydroxyhexyl)amino)octyl)piperidin-3-yl)amino)hexyl)piperidin-4-yl)-2,3-dihydrobenzofuran-7-carboxamide] |
| 8.43 | Nc1c(Cl)cc(C(=O)NC2CCN(CCCCCC(=O)NC3CCN(CCCCCCCC(=O)NC[C@H](O)[C@@H](O)[C@H](O)[C@H](O)CO)CC3)CC2)c2c1CCO2 [Example 30, 4-amino-5-chloro-N-(1-(6-oxo-6-((1-(8-oxo-8-(((2S,3R,4R,5R)-2,3,4,5,6-pentahydroxyhexyl)amino)octyl)piperidin-4-yl)amino)hexyl)piperidin-4-yl)-2,3-dihydrobenzofuran-7-carboxamide] |
